Reference: PubChem BioAssay AID608 (Sanford-Burnham Center for Chemical Genomics, 2007)
Values joined by “and” are separate entries in the source; they are usually repeats but may differ in a detail not shown here. Identical values can stand only once. Active and inactive are the calls of the source. The rule behind the calls is not given here.

molecular target: Peptidyl-prolyl cis-trans isomerase FKBP1A (Homo sapiens) (UniProt P62942); assay: FKBP12 binders, biophysical, NMR detection (AID 608); conditions: NMR binding, purified FKBP12
Sequence (P62942 whole entry, looked up): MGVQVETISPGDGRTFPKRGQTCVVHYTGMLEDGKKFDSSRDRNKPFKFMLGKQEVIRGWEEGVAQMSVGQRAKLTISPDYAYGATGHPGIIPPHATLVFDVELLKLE

Structure (SMILES)	Kd
c1ccc(-c2noc(-c3ccco3)n2)nc1	> 4 mM (inactive)
Cc1c(F)cccc1NS(=O)(=O)c1ccccc1C#N	> 4 mM (inactive)
CSc1nc(O)cc(=O)[nH]1	> 4 mM (inactive)
NC(=O)CS(=O)(=O)c1ccc(Cl)cc1	> 4 mM (inactive)
Cc1cc2ncc(C(=O)O)c(C)n2n1	> 4 mM (inactive)
CC(=O)CS(=O)(=O)c1ccccc1	> 4 mM (inactive)
O=C(NC1CC1)c1ccccc1[N+](=O)[O-]	> 4 mM (inactive)
CCN1CCc2c(sc(N)c2C#N)C1	> 4 mM (inactive)
O=C(O)CSCc1ccc(Cl)cc1	> 4 mM (inactive)
c1ccc2[nH]c(-c3cscn3)nc2c1	0.111 mM and 0.056 mM
O=C(c1ccncc1)c1ccc(Br)cc1	> 4 mM (inactive)
CC(=O)N1CCc2ccccc2C1CC(=O)O (stereo unspecified)	> 4 mM (inactive)
CCOc1cc(S(=O)(=O)n2nc(C)cc2C)ccc1F	> 4 mM (inactive)
Cc1n[nH]c(C)c1CC(=O)O	> 4 mM (inactive)
CC(=O)Nc1ccc2c(c1)CCC2=O	> 4 mM (inactive)
Nc1nc(-c2ccc(F)c(F)c2)cs1	> 4 mM (inactive)
Oc1ccccc1-c1cc(C(F)(F)F)[nH]n1	> 4 mM (inactive)
O=C1c2cccnc2C(=O)N1Cc1ccco1	> 4 mM (inactive)
CC(=O)Nc1ccc(Oc2nc(C)cc(C)n2)cc1	> 4 mM (inactive)
O=C(O)CSc1nnc(-c2cccs2)o1	> 4 mM (inactive)
CCCN1CCC(N2CCC(O)CC2)CC1	> 4 mM (inactive)
Nc1nc(-c2ccc(Cl)cc2)nn1C(=O)c1cccnc1	> 4 mM (inactive)
S=c1nc[nH]c2c1cnn2-c1ccccc1	> 4 mM (inactive)
CCOC(=O)c1c(C)cc(OC)cc1O	> 4 mM (inactive)
O=C(c1ccccc1-c1ccccc1)N1CCOCC1	> 4 mM (inactive)

Structure (SMILES)	Kd
Cc1ccc(C(=O)N2CCOCC2)cc1Cl	> 4 mM (inactive)
O=S(=O)(CCN1CCCC1)c1ccccc1	> 4 mM (inactive)
O=c1ccc2ccc(O)cc2o1	> 4 mM (inactive)
CC(=O)Nc1ccc(N(C)C(C)=O)cc1	> 4 mM (inactive)
N=C1/C(=C\c2ccco2)C(=O)N=C2SC=NN12	> 4 mM (inactive)
O=C(Nc1cccc2cccnc12)c1cccnc1	> 4 mM (inactive)
Cn1c(=O)c2c([nH]c(=O)n2C)n(C)c1=O	> 4 mM (inactive)
COc1ccc(-c2c(O)c3c(OC)c4c(cc3oc2=O)OC(C)(C)CC4)cc1	> 4 mM (inactive)
OCc1cc2ccccc2o1	> 4 mM (inactive)
CC(O)c1nc2ccccc2[nH]1 (stereo unspecified)	> 4 mM (inactive)
COC(=O)c1cn(C(=O)OC)c2ccccc12	> 4 mM (inactive)
COc1ccc([C@H]2Oc3c(I)c(OC)cc(OC)c3C[C@@H]2O)cc1OC	> 4 mM (inactive)
NC1=NC(=O)/C(=C/c2cccs2)S1	> 4 mM (inactive)
C=CC(C1=CC(=O)C=CC1=O)c1ccccc1 (stereo unspecified)	> 4 mM (inactive)
Cc1cc(NS(=O)(=O)Cc2ccccc2)no1	> 4 mM (inactive)
O=C(O)c1cccnc1-c1nc2ccccc2s1	> 4 mM (inactive)
COc1cccc(Oc2ccc(N)cn2)c1	> 4 mM (inactive)
Cc1noc(C)c1C(=O)Nc1cccnc1	> 4 mM (inactive)
O=C(Nc1ccccc1CO)c1ccccc1F	> 4 mM (inactive)
CC(O)C(=O)N/N=C/c1cccs1 (stereo unspecified)	> 4 mM (inactive)
O=C1CCNc2cc3ccccc3cc21	> 4 mM (inactive)
Cc1cc(C)c(OCC(=O)N2CCOCC2)c(C)c1	inactive
N#Cc1cc2c(nc1SCc1ccncc1)CCC2	> 4 mM (inactive)
c1ccc(-c2csc3ncn4nnnc4c23)cc1	> 4 mM (inactive)
COc1cc([C@@H]2c3cc4c(cc3[C@H](O)[C@H]3COC(=O)[C@@H]23)OCO4)cc(OC)c1OC	> 4 mM (inactive)

Structure (SMILES)	Kd
O=c1cccc2n1CC1CC2CN2CCCC[C@@H]12 (stereo partly specified)	> 4 mM (inactive)
CNC(=O)C1COc2ccccc2O1 (stereo unspecified)	> 4 mM (inactive)
OC12CC3CC(C1)C1(NCCS1)C(C3)C2 (stereo unspecified)	> 4 mM (inactive)
O=C(c1ccccc1F)N1CCN(c2ccccc2)CC1	> 4 mM (inactive)
O=C(c1sc2cc([N+](=O)[O-])ccc2c1Cl)N1CCOCC1	inactive
O=C(Nc1ccncc1)Nc1ccc(F)cc1F	> 4 mM (inactive)
COc1ccc2c(c1)OC/C(=C\c1ccc(OC)c(O)c1)C2=O	> 4 mM (inactive)
NC(=O)c1ccc(C(N)=O)cc1	> 4 mM (inactive)
CSc1nnnn1-c1cccc(O)c1	> 4 mM (inactive)
CC(=O)c1c(C)nc(-c2ccc(F)cc2)n1O	> 4 mM (inactive)
Cc1cccc(C)c1NC(=O)/C=C/C(=O)O	> 4 mM (inactive)
CCOC(=O)CN1C(=O)c2ccccc2C1=O	> 4 mM (inactive)
O=S(=O)(Nc1cccc2cn[nH]c12)c1ccc(F)cc1	> 4 mM (inactive)
NC(=S)CN1CCCC1=O	> 4 mM (inactive)
CC(=O)O[C@H]1C[C@@H](OC(C)=O)C(C)(C)C2C[C@@H](OC(C)=O)[C@@]3(C)C4=CC(=O)O[C@@H](c5ccoc5)[C@]4(C)CCC3[C@]21C (stereo partly specified)	> 4 mM (inactive)
COc1cc(OC)c2ccc(=O)oc2c1	> 4 mM (inactive)
CC(=O)N1CCN(c2ccc(O)cc2)CC1	> 4 mM (inactive)
Cc1cc(C(=O)NCc2cccnc2)no1	> 4 mM (inactive)
Nc1ccc(-n2cncn2)cc1	> 4 mM (inactive)
CC(=O)Nc1ccc(C(=O)n2nc(C)cc2C)cc1	> 4 mM (inactive)
OCc1ccc(Oc2ccccc2)nc1	> 4 mM (inactive)
Cc1cc(C)n(CC(=O)NC2CCCCC2)n1	> 4 mM (inactive)
COc1ccc2c(c1)[nH]c1c(C)nccc12	> 4 mM (inactive)
COc1nc(N2CCOCC2)nc(N)c1[N+](=O)[O-]	> 4 mM (inactive)
NC(=O)CSc1nnc(-c2cccnc2)o1	> 4 mM (inactive)

Structure (SMILES)	Kd
CC1(C)CC[C@]2(C(=O)O)CC[C@]3(C)C(=CCC4[C@@]5(C)CC[C@@H](O)C(C)(C)C5CC[C@]43C)C2C1 (stereo partly specified)	> 4 mM (inactive)
O=C(O)c1ccc(-c2cnco2)cc1	> 4 mM (inactive)
CC(=O)C1=C(O)C(=O)NC1c1ccccc1 (stereo unspecified)	> 4 mM (inactive)
COc1ccc(-c2nc(C)sc2CC(=O)O)cc1	> 4 mM (inactive)
COC(=O)c1cccc(N)c1	> 4 mM (inactive)
C=CCNC(=O)c1nn2cccnc2c1Cl	> 4 mM (inactive)
C/C=C/COc1nc2c(c(=O)n(C)c(=O)n2C)n1C	> 4 mM (inactive)
CC1=C2C(O)C(=O)OC3CC4C(C)(C)C(=O)C=C[C@]4(C)C(CC1)[C@]23C (stereo partly specified)	> 4 mM (inactive)
COc1ccc2c(Cl)c(C(=O)N3CCOCC3)sc2c1Cl	inactive
Cn1ccnc1SCc1cc(=O)[nH]c2ccccc12	> 4 mM (inactive)
COc1cc2c(cc1OC)[C@@H]1C(=O)c3ccc4c(c3O[C@@H]1CO2)CC(C(C)C)O4 (stereo partly specified)	> 4 mM (inactive)
Cc1ccc2c(c1)CCCN2C(=O)c1c(C)noc1C	> 4 mM (inactive)
C=C1C2CC[C@@]3(C)[C@H](c4ccoc4)OC(=O)C[C@]13O[C@H]1CC(=O)C(C)(C)[C@H](C(OC(C)=O)C(=O)OC)[C@@]21C (stereo partly specified)	> 4 mM (inactive)
Cc1cc(OC(=O)c2c(C)cc(O)cc2O)cc(O)c1C(=O)O	> 4 mM (inactive)
Cn1ncc(N2CCOCC2)c(Cl)c1=O	> 4 mM (inactive)
COCCn1c(C)cc(O)cc1=O	> 4 mM (inactive)
Cc1onc(-c2ccccc2)c1CN	> 4 mM (inactive)
Cc1nc2nc(-c3ccco3)nn2c(C)c1Cl	> 4 mM (inactive)
C[C@@H]1C(=O)OC2[C@H](O)C34[C@@H]5OC(=O)[C@@]3(O[C@@H]3OC(=O)[C@H](O)[C@@]34[C@H](C(C)(C)C)[C@H]5O)[C@]21O (stereo partly specified)	> 4 mM (inactive)
CN1C(=O)Cc2cc(S(N)(=O)=O)ccc21	> 4 mM (inactive)
CC(C)C(=O)NCC(c1ccco1)N1CCOCC1 (stereo unspecified)	> 4 mM (inactive)
CN1C2CC[C@@H]1CC(OC(=O)[C@H](CO)c1ccccc1)C2 (stereo partly specified)	> 4 mM (inactive)
O=C(NC1=NCCS1)c1cccc(F)c1	> 4 mM (inactive)
Cc1ccc(CCNc2ccccc2)c[n+]1[O-]	> 4 mM (inactive)
OCc1ccc2c(c1)CCO2	> 4 mM (inactive)

Structure (SMILES)	Kd
NC(=O)c1cccc(Cl)n1	> 4 mM (inactive)
Nc1cccc2nsnc12	> 4 mM (inactive)
COC(=O)c1cncc(C(=O)OC)c1	> 4 mM (inactive)
Cn1[nH]c2nc3[nH]n(C)c(=O)c3c(-c3ccccc3)c2c1=O	> 4 mM (inactive)
Cc1cccc(N2C(=O)CC(=O)NC2=O)c1	> 4 mM (inactive)
Nc1[nH]c(=S)ncc1S(=O)(=O)c1ccccc1	> 4 mM (inactive)
O=C(CCc1n[nH]c(=O)[nH]c1=O)NCc1ccccc1	> 4 mM (inactive)
O=C1Cn2c(nc3ccccc32)N1c1ccccc1F	> 4 mM (inactive)
Cn1nc(C(C)(C)C)cc1N	> 4 mM (inactive)
Cc1nc2ccc(C(=O)O)cc2nc1C	> 4 mM (inactive)
Cn1c(SCCC(=O)O)nnc1-c1cccnc1	> 4 mM (inactive)
COc1ccc(-c2nc3nc(C)cc(C)n3n2)cc1	> 4 mM (inactive)
Cn1c(=O)cc(N2CCCCC2)[nH]c1=O	> 4 mM (inactive)
NC(CC(=O)O)c1ccccc1 (stereo unspecified)	> 4 mM (inactive)
COc1cc2c(cc1OC)-c1cc3ccc(OC)c(OC)c3c[n+]1CC2	> 4 mM (inactive)
O=C1N=C(N2CCOCC2)S/C1=C\c1cccnc1	> 4 mM (inactive)
CNC(=O)c1cc(S(=O)(=O)N(C)C)ccc1Cl	> 4 mM (inactive)
CCOC(=O)c1c(C)nc2c(C#N)cnn2c1C	> 4 mM (inactive)
Cc1ccc(S(=O)(=O)CC(N)=O)cc1	> 4 mM (inactive)
S=C(c1ccc(N2CCOCC2)cc1)N1CCCCC1	> 4 mM (inactive)
Cc1ccccc1NC(=O)C1CC(=O)N=C(N)S1 (stereo unspecified)	> 4 mM (inactive)
